# Results: patent US20010055590A1, “Method for enhancing myoblast migration and invasion in the context of gene therapy” (priority 1999, published 2001)
# B1: purified human plasmin (protein, UniProt P00747 20-580; P00747 581-810, looked up)
# Plasmin heavy chain A: EPLDDYVNTQGASLFSVTKKQLGAGSIEECAAKCEEDEEFTCRAFQYHSKEQQCVIMAENRKSSIIIRMRDVVLFEKKVYLSECKTGNGKNYRGTMSKTKNGITCQKWSSTSPHRPRFSPATHPSEGLEENYCRNPDNDPQGPWCYTTDPEKRYDYCDILECEEECMHCSGENYDGKISKTMSGLECQAWDSQSPHAHGYIPSKFPNKNLKKNYCRNPDRELRPWCFTTDPNKRWELCDIPRCTTPPPSSGPTYQCLKGTGENYRGNVAVTVSGHTCQHWSAQTPHTHNRTPENFPCKNLDENYCRNPDGKRAPWCHTTNSQVRWEYCKIPSCDSSPVSTEQLAPTAPPELTPVVQDCYHGDGQSYRGTSSTTTTGKKCQSWSSMTPHRHQKTPENYPNAGLTMNYCRNPDADKGPWCFTTDPSVRWEYCNLKKCSGTEASVVAPPPVVLLPDVETPSEEDCMFGNGKGYRGKRATTVTGTPCQDWAAQEPHRHSIFTPETNPRAGLEKNYCRNPDGDVGGPWCYTTNPRKLYDYCDVPQCAAPSFDCGKPQVEPKKCPGR
# Plasmin light chain B: VVGGCVAHPHSWPWQVSLRTRFGMHFCGGTLISPEWVLTAAHCLEKSPRPSSYKVILGAHQEVNLEPHVQEIEVSRLFLEPTRKDIALLKLSSPAVITDKVIPACLPSPNYVVADRTECFITGWGETQGTFGAGLLKEAQLPVIENKVCNRYEFLNGRVQSTELCAGHLAGGTDSCQGDSGGPLVCFEKDKYILQGVTSWGLGCARPNKPGVYVRVSRFVTWIEGVMRNN
# modifications: Plasmin
# What was measured:
# [1] = test system: SCID mouse vastus musculature; test: Myoblast implantation in vivo: incorporation of β-GAL-marked myoblasts into host myofibers; conditions: myoblasts stimulated before implantation with 1 μg/ml bFGF, 50 μg/ml fibronectin or both; SCID mice, 3 weeks; 4 animals
# Method: All animal studies were carried out following the institutional guideline for animal use. For in vivo studies, SCID mouse myoblasts transduced with a BAG retrovirus containing the beta-galactosidase (β-GAL) reporter gene and selected as previously described (Yao and Kurachi “Implanted myoblasts not only fuse with myofibers but also survive as muscle precursor cells” J. Cell Sci 105:957-963, 1993), were grown in growth medium on 15 cm plates. When cells reached 70% confluence they were harvested by trypsinization using standard methods, rinsed twice in phosphate buffered saline (PBS), and resuspended in DMEM containing either bFGF (1 μg/ml), fibronectin (50 μg/ml) or both, at a concentration of 2×10^7 cells/ml. […]
# Muscle sections were stained for β-GAL activity using the standard histochemical staining procedure (Rando et al. “The fate of myoblasts following transplant into mature muscle” Exper. Cell Res. 220:383-389, 1995). […] The total number of β-GAL-positive fibers (stained blue) per section was counted for 5 different sections spanning the entire injection site for each animal and averaged. […]
# The number of β-GAL positive myofibers were quantified after implantation of BAG-transduced SCID myoblasts treated with DMEM alone (control), 1 μg/ml bFGF, 50 μg/ml fibronectin, or 1 μg/ml bFGF+50 μg/ml fibronectin. […]
# MMP-2 = test: Gelatin zymography of mouse myoblast culture medium, MMP-2; format: cell-based
# Method: Briefly, myoblasts were grown in 6 cm tissue culture plates to approximately 70% confluence, then rinsed three times with serumfree DMEM and incubated for 3 hours in DMEM containing 0.2% BSA to eliminate the effects of serum. Growth factors were added and cells were incubated for 24 hours. Culture medium was then collected, centrifuged to pellet detached cells, and concentrated ten-to twenty-fold using the Centricon-10 (Amicon, Beverly, Mass.) system. The protein concentration of the supernatants was determined using the Bio-Rad protein microassay system with BSA used as the standard. Samples were stored at −70° C. until use. For gelatin zymography, aliquots (10 μg as the total protein per sample) were electrophoresed at constant voltage on a 10% polyacrylamide gel containing 2 mg/ml gelatin. The gel was rinsed three times for 15 min in 2.5% Triton-X 100 to remove SDS and renature the proteins, then incubated in MMP activation buffer (0.05 M Tris-HCl, pH 7.5 with 5 mM CaCl2) for 24 hours at 37° C. with constant shaking. Gels were stained overnight in 0.5% Coomassie blue R-250, and destained for 1 hour in 40% methanol: 10% acetic acid. Proteinase activity was quantified by densitometric scanning of bands using a Bio-Rad Gel Doc 1000 video camera imaging system (Bio Rad, Hercules, Calif.). […] Values are arbitrary densitometric units, which are normalized to DMEM control for each experiment and shown as values ±SEM representing a minimum of 3 experiments per condition. […] Mouse myoblasts were treated for 24 hours with either DMEM alone, fibronectin (50 μg/ml), or individual fragments (37.5 μg/ml) of 45, 120, 63 (Retronectin), 75 kDa and their combinations, 45 kDa/120 kDa and 120 kDa/63 kDa.
# mouse myoblasts = test: In vitro mouse myoblast invasion assay across Matrigel barrier; format: cell-based; conditions: 24 hours; for increase of mouse myoblast invasion across Matrigel barrier over the control: 25 ng/ml bFGF, 50 μg/ml fibronectin; for effect on bFGF-stimulated mouse myoblast invasion: 0.05 units/ml plasmin or 50 mM NAC
# Method: Mouse myoblasts were previously isolated from hind limb muscles of 4-6 week old severe combined immunodeficient (SCID) mice and clonally purified from contaminating fibroblasts (Yao et al. “Primary myoblast-mediated gene: transfer: persistent expression of human factor IX in mice” Gene Therapy 1:99-107, 1994). Myoblasts (approximately 1×10^6 cells) were plated on 6 cm tissue culture plates coated with 0.5% gelatin (Sigma, St. Louis, Mo.) and grown in growth medium consisting of Dulbecco's Modified Eagle Medium (DMEM) (Gibco BRL, Gaithersburg Md.) supplemented with 20% fetal bovine serum (FBS; Gibco) and 0.5% chick embryo extract (CEE; Gibco). All animal studies were carried out following the institutional guidelines for ethical animal use. Human myoblasts were isolated using trypsin digestion from abdominal wall or chest wall muscle biopsies, and surgery. Written consent was obtained from all patients prior to biopsy isolation as approved by the University Hospital's Institutional Regulation Board on the use of human subjects. Cells were preplated on uncoated plates for 1 hour to separate muscle fibroblasts. […] All experiments were done with myoblasts of passage 7 or lower. Myoblast migration and invasion were examined using a commercially available in vitro cell migration and invasion assay kit (Biocoat, Becton Dickinson, Franklin Lakes, N.J.) as described by Albini et al. (A rapid in vitro assay for quantitating the invasive potential of tumor cells Cancer Res 47:3239-3245, 1987). Myoblasts were grown to approximately 70% confluence, rinsed three times in serum-free DMEM, followed by incubation for 3 hours in 0.2% bovine serum albumin (BSA) in DMEM to eliminate the effects of serum. Cells were then trypsinized and collected by centrifugation. Cells were resuspended in serum-free DMEM at a density of 1×10^5 cells/ml, and 0.5 ml aliquots of cell suspension were added to the top chamber. […] Fibronectin subfragments of 45 KDa (Sigma), 120 kDa (Gibco), 63 kDa (Retronectin, Takara) and 70 KDa (Sigma) were used alone or in combination. […] For migration studies, the upper chamber membrane was coated with 0.1% gelatin and cells were allowed to migrate for 8-12 hours, while for invasion studies, the upper membrane was coated with 5 μl of Matrigel® diluted to 5 mg/ml in sterile phosphate buffered saline (PBS) and cells were allowed to invade for 24 hours. The top side of the insert membrane was scrubbed free of cells using a cotton swab and the bottom side was stained using the Leukostat-I system (Fisher Diagnostics, Pittsburgh, Pa.). The number of cells per field was counted in 10 randomly selected fields and averaged for each condition. To evaluate the effects of inactivation or activation of MMPs, aliquots (0.05 units in 50 μl PBS) of purified human plasmin (Sigma) or 50 mM N-acetyl cysteine (NAC; Sigma) were added with the cells to the top chamber of the migration assay and growth factor was added to the bottom. […] Myoblasts (5×10^4 cells/well) were stimulated with various growth factors and fibronectin, and their ability to migrate or invade through a Matrigel® barrier (panel a, mouse myoblast migration at 12 hours; panel b, mouse myoblast invasion at 24 hours). […] Bars represent mean ±SEM from a minimum of 3 separate experiments.
# MMP-9 = test: Gelatin zymography of mouse myoblast culture medium, MMP-9; format: cell-based
# Method: Briefly, myoblasts were grown in 6 cm tissue culture plates to approximately 70% confluence, then rinsed three times with serumfree DMEM and incubated for 3 hours in DMEM containing 0.2% BSA to eliminate the effects of serum. Growth factors were added and cells were incubated for 24 hours. Culture medium was then collected, centrifuged to pellet detached cells, and concentrated ten-to twenty-fold using the Centricon-10 (Amicon, Beverly, Mass.) system. The protein concentration of the supernatants was determined using the Bio-Rad protein microassay system with BSA used as the standard. Samples were stored at −70° C. until use. For gelatin zymography, aliquots (10 μg as the total protein per sample) were electrophoresed at constant voltage on a 10% polyacrylamide gel containing 2 mg/ml gelatin. The gel was rinsed three times for 15 min in 2.5% Triton-X 100 to remove SDS and renature the proteins, then incubated in MMP activation buffer (0.05 M Tris-HCl, pH 7.5 with 5 mM CaCl2) for 24 hours at 37° C. with constant shaking. Gels were stained overnight in 0.5% Coomassie blue R-250, and destained for 1 hour in 40% methanol: 10% acetic acid. Proteinase activity was quantified by densitometric scanning of bands using a Bio-Rad Gel Doc 1000 video camera imaging system (Bio Rad, Hercules, Calif.). […]
# [2] = mouse myoblasts treated 24 hours
Molecule,increase in the number of β-GAL-positive myofibers over control [1] [fold],increase of mouse myoblast invasion across Matrigel barrier over the control (mouse myoblasts),effect on bFGF-stimulated mouse myoblast invasion (mouse myoblasts),further results
human serum fibronectin,2,4 fold,–,"MMP-2 proteolytic activation (64 and 62 kDa forms) (MMP-2; [2]): substantial proteolytic conversion to the activated and intermediate forms; increased MMP-2 expression (MMP-2; mouse myoblasts, soluble fibronectin 24 hours): approximately 2 fold; effect on MMP-9 expression (MMP-9; mouse myoblasts): does not significantly affect"
"CC(=O)N[C@@H](CS)C(=O)O [NAC, N-acetyl cysteine, reference compound]",–,–,drastically reduced such stimulatory effects to the control levels,–
bovine basic fibroblast growth factor [bFGF],2.3,approximately 7 fold,–,"increase of total MMP-2 expression (MMP-2; mouse myoblasts treated 24 hours, densitometry normalized to DMEM control): 49%; MMP-9 expression (110 kDa band) over the DMEM control level (MMP-9; [2]): ~10 fold"
B1,–,–,further increased the effects of bFGF,effect on invasion stimulated by combination of bFGF and fibronectin (mouse myoblasts; plasmin): lowered the greatly enhanced effects
